The structures appear in SMILES notation.

The target in this test is T1, human kinase Mps-1 (Homo sapiens, UniProt P33981).
T1 construct: N-terminally GST-tagged human full length recombinant Mps-1 kinase; GST (N); purchased Invitrogen, Karslruhe, Germany PV4071
T1 sequence (P33981 1-857): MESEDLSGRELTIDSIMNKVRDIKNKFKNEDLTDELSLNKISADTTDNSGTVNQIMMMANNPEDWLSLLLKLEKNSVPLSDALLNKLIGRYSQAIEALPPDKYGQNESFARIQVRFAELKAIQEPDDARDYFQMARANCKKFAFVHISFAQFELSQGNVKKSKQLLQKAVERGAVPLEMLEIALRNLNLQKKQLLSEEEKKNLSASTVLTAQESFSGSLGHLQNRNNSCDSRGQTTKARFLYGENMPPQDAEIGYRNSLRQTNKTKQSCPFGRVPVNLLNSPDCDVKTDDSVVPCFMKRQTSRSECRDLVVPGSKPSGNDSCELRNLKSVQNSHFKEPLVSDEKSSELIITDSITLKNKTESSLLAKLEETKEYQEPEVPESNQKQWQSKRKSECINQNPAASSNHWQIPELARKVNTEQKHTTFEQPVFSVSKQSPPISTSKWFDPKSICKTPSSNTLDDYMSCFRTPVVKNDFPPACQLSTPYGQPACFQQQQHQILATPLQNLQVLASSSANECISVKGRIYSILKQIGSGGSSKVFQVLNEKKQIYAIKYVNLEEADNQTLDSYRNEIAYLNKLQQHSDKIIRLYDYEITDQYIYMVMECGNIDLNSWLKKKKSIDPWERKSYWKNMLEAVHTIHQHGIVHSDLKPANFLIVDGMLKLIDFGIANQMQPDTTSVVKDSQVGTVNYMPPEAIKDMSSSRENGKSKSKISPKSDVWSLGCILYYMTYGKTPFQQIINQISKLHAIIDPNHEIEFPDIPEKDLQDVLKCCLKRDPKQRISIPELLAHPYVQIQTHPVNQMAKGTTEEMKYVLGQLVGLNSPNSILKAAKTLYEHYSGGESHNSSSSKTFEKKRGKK
Put plainly: Mps-1 kinase assay (TR-FRET). The class given is biochemical. The note with it: GST-tagged human full length recombinant Mps-1; 10 μM ATP; 1 μM peptide substrate; 60 min at 22° C. An outline of the steps: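 N-terminally GST-tagged full-length recombinant human Mps-1, about 1 nM final, phosphorylates a biotinylated peptide. Product detected by TR-FRET from Eu-anti-phospho-Ser/Thr antibody to streptavidin-XLent after 1 h at 22° C.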
On the technique in general: In TR-FRET formats the signal depends on donor and acceptor labels being close together.
One may read the IC50 as the point on the concentration scale where inhibition reaches its midpoint. On to `CC(C)CNc1nc(CCCO)cn2c(-c3ccc(C(=O)NC4CC4)cc3)cnc12` [Example 7-3, N-cyclopropyl-4-{6-(3-hydroxypropyl)-8-[(2-methylpropyl)amino]imidazo[1,2-a]pyrazin-3-yl}benzamide], for which the IC50 was determined as 7.2 nM.
As for `CC(C)CNc1nc(C2CCOCC2)cn2c(-c3ccc(C(=O)NC4CC4)cc3)cnc12` [Example 7-4, N-cyclopropyl-4-{8-[(2-methylpropyl)amino]-6-(tetrahydro-2H-pyran-4-yl)imidazo[1,2-a]pyrazin-3-yl}benzamide], the IC50 worked out at 1.5 nM.
On to `CNC(=O)CCCCc1cn2c(-c3ccc(C(=O)NC4CC4)cc3)cnc2c(NCC(C)C)n1` [Example 7-5, N-cyclopropyl-4-{6-[5-(methylamino)-5-oxopentyl]-8-[(2-methylpropyl)amino]imidazo[1,2-a]pyrazin-3-yl} benzamide], for which the IC50 was 6.5 nM.
In the case of `CC(C)CNc1nc(C2CCN(C)CC2)cn2c(-c3ccc(C(=O)NC4CC4)cc3)cnc12` [Example 7-6, N-cyclopropyl-4-{6-(1-methylpiperidin-4-yl)-8-[(2-methylpropyl)amino]imidazo[1,2-a]pyrazin-3-yl}benzamide], the IC50 worked out at 3.9 nM.
For `CC(C)CNc1nc(C(=O)Nc2ccccc2)cn2c(-c3ccc(C(=O)NC4CC4)cc3)cnc12` [Example 8-1, 3-[4-(cyclopropylcarbamoyl)phenyl]-8-[(2-methylpropyl)amino]-N-phenylimidazo[1,2-a]pyrazine-6-carboxamide] the value was 67.2 nM.
With `CC(C)CNc1nc(C(=O)NCCN2CCCCC2)cn2c(-c3ccc(C(=O)NC4CC4)cc3)cnc12` [Example 8-2, 3-[4-(cyclopropylcarbamoyl)phenyl]-8-[(2-methylpropyl)amino]-N-[2-(piperidin-1-yl)ethyl] imidazo[1,2-a]pyrazine 6-carboxamide], the IC50 is 11.7 nM.
The result for `CC(C)CNc1nc(C(=O)N2CCCCC2)cn2c(-c3ccc(C(=O)NC4CC4)cc3)cnc12` [Example 8-3, N-cyclopropyl-4-{8-[(2-methylpropyl)amino]-6-(piperidin-1-ylcarbonyl)imidazo[1,2-a]pyrazin-3-yl}benzamide] reads 20.6 nM; that for `Cc1cc(-c2cnc3c(NCCC(F)(F)F)nc(C4=CC[S+]([O-])CC4)cn23)ccc1C(=O)NC1CC1` (stereo not shown) [Example 9-1, N-cyclopropyl-2-methyl-4-{6-(1-oxido-3,6-dihydro-2H-thiopyran-4-yl)-8-[(3,3,3-trifluoropropyl)amino]imidazo[1,2-a]pyrazin-3-yl}benzamide], 16 nM; that for `Cc1cc(-c2cnc3c(NCCC(F)(F)F)nc(CN)cn23)ccc1C(=O)NC1CC1` [Example 10-1, 4-{6-(aminomethyl)-8-[(3,3,3-trifluoropropyl)amino]imidazo[1,2-a]pyrazin-3-yl}-N-cyclopropyl-2-methylbenzamide], 82.9 nM.
For `Cc1cc(-c2cnc3c(NCCC(F)(F)F)nc(CN4CCCCC4)cn23)ccc1C(=O)NC1CC1` [Example 11-1, N-cyclopropyl-2-methyl-4-{6-(piperidin-1-ylmethyl)-8-[(3,3,3-trifluoropropyl)amino]imidazo[1,2-a]pyrazin-3-yl}benzamide] the value was 140 nM; for `Cc1cc(-c2cnc3c(NCCC(F)(F)F)nc(CNc4ccccc4)cn23)ccc1C(=O)NC1CC1` [Example 11-2, N-cyclopropyl-2-methyl-4-{6-[(phenylamino)methyl]-8-[(3,3,3-trifluoropropyl)amino]imidazo[1,2-a]pyrazin-3-yl}benzamide], 1.2 nM; for `CC(C)CNc1nc(N2CCCCS2(=O)=O)cn2c(-c3ccc(C(=O)NC4CC4)cc3)cnc12` [Example 12-1, N-cyclopropyl-4-{6-(1,1-dioxido-1,2-thiazinan-2-yl)-8-[(2-methylpropyl)amino]imidazo[1,2-a]pyrazin-3-yl}benzamide], 6.5 nM.
With `CC(C)CNc1nc(Oc2ccccc2)cn2c(-c3ccc(C(=O)NC4CC4)cc3)cnc12` [Example 13-1], the IC50 came to 1 nM.
Consider `Cc1cc(-c2cnc3c(NCC(C)(C)O)nc(Oc4ccccc4)cn23)ccc1C(=O)NC1CC1` [Example 13-4, N-cyclopropyl-4-{8-[(2-hydroxy-2-methylpropyl)amino]-6-phenoxy-imidazo[1,2-a]pyrazin-3-yl}-2-methylbenzamide], for which the IC50 stood at 2 nM.
In the case of `Cc1cc(-c2cnc3c(NCC(C)(C)O)nc(Oc4cccc(F)c4)cn23)ccc1C(=O)NC1CC1` [Example 13-5, N-cyclopropyl-4-{6-(3-fluorophenoxy)-8-[(2-hydroxy-2-methylpropyl)amino]imidazo[1,2-a]pyrazin-3-yl}-2-methyl benzamide], the IC50 was found to be 1.7 nM.
`CC(C)CNc1nc(C(N)=O)cn2c(-c3ccc(C(=O)NC4CC4)cc3)cnc12` [Example 14-1, 3-[4-(cyclopropylcarbamoyl)phenyl]-8-[(2-methylpropyl)amino]imidazo[1,2-a]pyrazine-6-carboxamide]: the IC50 was 9.9 nM.
In the case of `Cc1cc(-c2cnc3c(NCC(C)(C)O)nc(Sc4ccccc4)cn23)ccc1C(=O)NC1CC1` [Example 15-1, N-cyclopropyl-4-{8-[(2-hydroxy-2-methylpropyl)amino]-6-(phenylsulfanyl)imidazo[1,2-a]pyrazin-3-yl}-2-methylbenzamide], the concentration for half-maximal inhibition (IC50) was less than 1 nM.
The result for `Cc1cc(-c2cnc3c(NCCC(F)(F)F)nc(Sc4ccccc4)cn23)ccc1C(=O)NC1CC1` [Example 15-2, N-cyclopropyl-2-methyl-4-{6-(phenylsulfanyl)-8-[(3,3,3-trifluoropropyl)amino]imidazo[1,2-a]pyrazin-3-yl}benzamide] reads less than 1 nM.
For the compound `Cc1cc(-c2cnc3c(NCCC(F)(F)F)nc(Sc4cccc(F)c4)cn23)ccc1C(=O)NC1CC1` [Example 15-3, N-cyclopropyl-4-{6-[(3-fluorophenyl)sulfanyl]-8-[(3,3,3-trifluoropropyl)amino]imidazo[1,2-a]pyrazin-3-yl}-2-methylbenzamide], the IC50 was less than 1 nM.

(Values after US20140135319A1, “6-SUBSTITUTED IMIDAZOPYRAZINES FOR USE AS MPS-1 AND TKK INHIBITORS IN THE TREATMENT OF HYPERPROLIFERATIVE DISORDERS” (BAYER INTELLECTUAL PROPERTY GMBH, priority 2010, published 2014).)
